Reference: patent publication US5817624A, “Permeation enhancer compositions for increased absorption of therapeutic proteins through the colonic membrane” (Alza Corporation, priority 1995, dated 1998)
Where “and” joins values, the source holds several entries; their conditions need not be identical. Identical values can stand only once. Like-named read-outs stand apart in the source and are kept apart here.

Tested on: fasted anesthetized Sprague-Dawley male rats
Details: for % Maximum Decrease 0-60 mins (blood glucose): sodium bovine insulin 0.5 mg/kg, 1 mL peanut oil, intracolonic bolus, n = 3-4
Description: An animal model commonly known as the "intracolonic ligated model" was employed for testing formulations. Surgical preparation of a fasted anesthetized 0.3-0.5 kg Sprague-Dawley male rats proceeded as follows. A segment of proximal colon was isolated and the colon was flushed of fecal materials. The segment was ligated at both ends while a catheter was placed in the lumen and exteriorized above the skin for delivery of test formulation. The colonic contents were flushed out and the colon was returned to the abdomen of the animal. Depending on the experimental set up, the test formulation was added after the segment was filled with 1 mL/kg of 20 mM sodium phosphate buffer, pH 7.4, to more accurately simulate the actual colon environment in a clinical situation.
Rats were allowed to equilibrate for approximately 1 hour after surgical preparation and prior to exposure to each test formulation. Immediately prior to test solution administration, a 0.3-0.5 mL blood sample was taken from the jugular catheter of the rats and analyzed for glucose content using an Ames GlucometerM® blood glucose meter utilizing Glucostix® reagent strips. Withdrawn blood was replaced with an equal volume of heparinized Ringer's. Sodium bovine insulin was formulated to be delivered at a dose of 0.5 mg/kg body weight. Initially, all candidate enhancers were tested at a concentration of 300 mM. […] The solutes (enhancer and insulin) were suspended in 1 mL peanut oil (except where noted) and mixed using a vortex mixer. Test solutions were vortexed immediately prior to aspiration into individual delivery syringes.
After determination of baseline blood glucose levels, the test solution was administered as an intracolonic bolus and delivered at 1 ml/kg adjusting for either the 100 μl or 250 μl dead volume of the colonic catheter. Blood samples obtained from the jugular catheter were taken at 0, 5, 15, 30, 60, 120, 180 and 240 minutes and analyzed for blood glucose concentration. At the end of the 4 hour test period, the rats were euthanized with an overdose of pentobarbital. Colonic segments from each rat were excised and opened longitudinally along the anti-mesenteric border. Each segment was observed macroscopically for irritation and any abnormality noted. The excised colons were placed on graph paper and measured to approximate colonic surface area. Blood glucose dynamics are reported as the percent change from initial blood glucose levels.
Rats were prepared as described in EXAMPLE 1. […] The open symbols denote the formulations delivered in oil whereas the closed symbol denotes the formulation without oil.

| SMILES | % Maximum Decrease 0-60 mins (blood glucose) (enhancer 300 mM) | other results |
| --- | --- | --- |
| O=C([O-])c1cc(O)ccc1O.[Na+] [2,5-Dihydroxybenzoic acid, Na salt] | 1% and 9% |  |
| Nc1ccc(C(=O)[O-])c(O)c1.[Na+] [4-Amino salicylic acid, Na salt] | 10% |  |
| Nc1ccc(O)c(C(=O)[O-])c1.[Na+] [5-Amino salicylic acid, Na salt] | 13% | % Maximum Decrease 0-60 mins (blood glucose) (enhancer 100 mM): 13% |
| COc1ccc(O)c(C(=O)[O-])c1.[Na+] [5-Methoxysalicylic acid, Na salt] | 9% |  |
| O=C([O-])c1ccccc1.[Na+] [Benzoic acid, Na salt] | 0% |  |
| O=C([O-])c1ccccc1O.[Na+] [Na Salicylate, sodium salicylate] |  | rats that died (enhancer 250 mM with insulin 0.5 mg/kg in 1/8 mL peanut oil): 2/4; effect on blood glucose levels over a 4 hour period (enhancer 300 mM formulated without insulin): no effect; decrease in fasting blood glucose levels from pre-exposure levels (significance) (enhancer 300 mM with sodium bovine insulin (0.5 mg/kg) and peanut oil): significant decrease; rats that died (enhancer 600 mM with insulin 0.5 mg/kg and peanut oil, death due to low blood glucose levels): 4/4 |
| [Cl-].[Na+] [NaCl] | 2% |  |
